Test results as given in US8258097B2, “Amino acid derivatives” (Proximagen Ltd., priority 2007, dated 2012).

Tested on: 6-OHDA-lesioned rats
Assay: Assessment of rotational (locomotor) activity in 6-OHDA-lesioned rats
Assay type: in vivo, Male Wistar rats
Details: p.o., with benserazide 10 mg/kg, 63.4 μmole/kg
Description: • Animals Male Wistar rats, 200-225 g on arrival, Harlan Ltd. • Housing Animals were housed in groups of 4 on a 12-h light-dark cycle with an environment of 50% humidity and temperature of 21±2° C. in accordance with Animals (Scientific Procedures) Act […] Home Office regulations. Rats had access to food and water ad libitum. • Licence All animals used in this study were treated in accordance with the UK 1986 Animals (Scientific Procedures Act). Procedure • Surgery Male Wistar rats were anaesthetized in an induction chamber using isofluorane (1-2% in 95% O2, 5% CO2 carrier gas), placed in a Kopf stereotaxic frame and anaesthesia maintained with 0.5-1.0% isofluorane. An incision was made in the scalp and a 0.8-mm-diameter hole made in the skull at coordinates AP: −2.6 mm, L: +2.0 mm (all co-ordinated measured from bregma). The neurotoxin 6-hydroxydopamine (6-OHDA) (8 μg free base in 4 μL of 0.9% saline containing 0.05% ascorbic acid) was injected into the left median forebrain bundle at a constant rate over 4 min (1 μl/min) using a 10-μL Hamilton syringe lowered to −8 mm below the dura. The needle remained in place for a further 4 min before being removed, and the wound cleaned and sutured. Carprofen (5 mg/kg subcutaneously) was administered for pain relief and a rehydration treatment of 5% glucose in 0.9% saline (up to 5 ml ip) was given prior to recovery from the anaesthetic. Behavioural Assessment Confirmation of the Lesion • At least 2 weeks following surgery, animals were examined for rotational behaviour (see below) in response to the administration of apomorphine hydrochloride (0.5 mg/kg s.c. in 0.9% saline containing 0.05% ascorbic acid) to evaluate the extent of the lesion. […]. Animals were placed in rotometers (Med Associates) for up to 30 min to measure basal activity. They were then treated with benserazide (10 mg/kg) concomitantly with test compound or L-DOPA (63.4 μmole/kg ip or po). Rotation behaviour was assessed for up to 6 hours after test drug/L-DOPA administration. Animals were typically treated with a series of compounds for comparative purposes. Each treatment was administered at least 1 day apart. Data Analysis • The number of rotations measured per 10 minutes over the 6 hour period was determined. Animals were considered active if they turned >10 turns per 10 minutes.

CNC(=O)Oc1cc(C[C@H](NC(=O)[C@@H](N)Cc2ccc(O)c(O)c2)C(=O)OC)ccc1O.Cl [Example 8, (S)-2-(3,4-Dihydroxy-phenyl)-1-[(S)-2-(4-hydroxy-3-methylcarbamoyloxy-phenyl)-1-methoxycarbonyl-ethylcarbamoyl]-ethyl-ammonium chloride]
AUC (locomotor activity): 928 (±161) rotations per 220 min | locomotor activity compared to baseline: increased locomotor activity compared to baseline | peak locomotor activity: 92 (±20) rotations per 10 min | duration of locomotor activity (active = >10 turns per 10 minutes): 142 (±7) min
